# Experimental data as given in patent US7534805B2, “Imidazole derivatives, their preparation and their use as medicaments” (Societe de Conseils de Recherches Et d'Applications …, priority 2003, dated 2009).
row,melting point [°C],SMILES
1,174 to 176,Brc1ccc(Oc2ccc(-c3c[nH]c(COc4ccccc4)n3)cc2)cc1.O=C(O)C(F)(F)F
2,227 to 229,Cl.c1ccc(OCc2nc(-c3ccc(OCCN4CCCCC4)cc3)c[nH]2)cc1
3,206 to 208,CN(C)CCOc1ccc(-c2c[nH]c(COc3ccccc3)n2)cc1.Cl
4,< 50,O=C(O)C(F)(F)F.O=C(c1ccccc1)c1ccc(-c2c[nH]c(COc3ccccc3)n2)cc1
5,198 to 200,O=C(Nc1ccc(F)cc1)c1ccc(-c2c[nH]c(COc3ccccc3)n2)cc1.O=C(O)C(F)(F)F
6,> 300,Cl.Nc1cccc(Oc2ccc(-c3c[nH]c(COc4ccccc4)n3)cc2)c1
7,178 to 180,Nc1ccc(Oc2ccc(-c3c[nH]c(COc4ccccc4)n3)cc2)cc1[N+](=O)[O-].O=C(O)C(F)(F)F
8,88 to 89,Cl.Nc1ccccc1Oc1ccc(-c2c[nH]c(COc3ccccc3)n2)cc1
9,> 300,Cl.NCc1ccc(Oc2ccc(-c3c[nH]c(COc4ccccc4)n3)cc2)cc1
10,158 to 160,Cl.Clc1ccccc1Oc1ccc(-c2c[nH]c(COc3ccccc3)n2)cc1
11,> 250,Cl.NCC(=O)Nc1ccc(Oc2ccc(-c3c[nH]c(COc4ccccc4)n3)cc2)cc1
12,112 to 114,O=C(O)C(F)(F)F.c1ccc(OCc2nc(-c3ccc(Oc4ccccc4)cc3)c[nH]2)cc1
13,150 to 152,"c1ccc(SCc2nc(-c3ccc(-c4ccccc4)cc3)c[nH]2)cc1 [Example 2, 4-(1,1′-biphenyl-4-yl)-2-[(phenylthio)methyl]-1H-imidazole]"
14,185 to 187,"c1ccc(OCc2nc(-c3ccc(-c4ccccc4)cc3)c[nH]2)cc1 [Example 3, 4-(1,1′-biphenyl-4-yl)-2-(phenoxymethyl)-1H-imidazole]"
15,108 to 110,"Fc1ccc(Oc2ccc(-c3c[nH]c(CSc4ccccc4)n3)cc2)cc1 [Example 4, 4-[4-(4-fluorophenoxy)phenyl]-2-[(phenylthio)methyl]-1H-imidazole]"
16,193 to 195,"Fc1ccc(OCc2nc(-c3ccc(Oc4ccc(F)cc4)cc3)c[nH]2)cc1 [Example 5, 2-[(4-fluorophenoxy)methyl]-4-[4-(4-fluorophenoxy)phenyl]-1H-imidazole]"
17,144 to 146,"c1ccc(OCc2nc(-c3ccc(Sc4ccccc4)cc3)c[nH]2)cc1 [Example 6, 2-(phenoxymethyl)-4-[4-(phenylthio)phenyl]-1H-imidazole]"
18,192 to 194,"O=S(=O)(c1ccccc1)c1ccc(-c2c[nH]c(COc3ccccc3)n2)cc1 [Example 7, 2-(phenoxymethyl)-4-[4-(phenylsulphonyl)phenyl]-1H-imidazole]"
19,182 to 183,"Fc1ccccc1COc1ccc(-c2c[nH]c(COc3ccccc3)n2)cc1 [Example 8, 4-{4-[(2-fluorobenzyl)oxy]phenyl}-2-(phenoxymethyl)-1H-imidazole]"
20,194 to 196,"c1ccc(OCc2nc(-c3ccc(-n4ccnc4)cc3)c[nH]2)cc1 [Example 11, 4-[4-(1H-imidazol-1-yl)phenyl]-2-(phenoxymethyl)-1H-imidazole]"
21,132 to 134,"COc1ccc(Oc2ccc(-c3c[nH]c(COc4ccccc4)n3)cc2)cc1 [Example 12, 4-[4-(4-methoxyphenoxy)phenyl]-2-(phenoxymethyl)-1H-imidazole]"
22,151 to 153,"CCCCCCc1ccc(-c2c[nH]c(COc3ccccc3)n2)cc1 [Example 13, 4-(4-hexylphenyl)-2-(phenoxymethyl)-1H-imidazole]"
23,187 to 189,"O=[N+]([O-])c1ccc(Oc2ccc(-c3c[nH]c(COc4ccccc4)n3)cc2)cc1 [Example 15, 4-[4-(4-nitrophenoxy)phenyl]-2-(phenoxymethyl)-1H-imidazole]"
24,144 to 146,"c1ccc(OCc2nc(-c3ccc(OCCN4CCOCC4)cc3)c[nH]2)cc1 [Example 16, 4-(2-{4-[2-(phenoxymethyl)-1H-imidazol-4-yl]phenoxy}ethyl) morpholine]"
25,159 to 161,"COCCOc1ccc(-c2c[nH]c(COc3ccccc3)n2)cc1 [Example 19, 4-[4-(2-methoxyethoxy)phenyl]-2-(phenoxymethyl)-1H-imidazole]"

row,melting point [°C],SMILES
1,< 40,"Cc1[nH]c(COc2ccccc2)nc1-c1ccc(Oc2ccc(F)cc2)cc1 [Example 21, 4-[4-(4-fluorophenoxy)phenyl]-5-methyl-2-(phenoxymethyl)-1H-imidazole]"
2,224 to 225,"O=C(Nc1ccc(-c2c[nH]c(COc3ccccc3)n2)cc1)c1ccc(F)cc1 [Example 22, 4-fluoro-N-{4-[2-(phenoxymethyl)-1H-imidazol-4-yl]phenyl}benzamide]"
3,179 to 181,"N#Cc1ccc(Oc2ccc(-c3c[nH]c(COc4ccccc4)n3)cc2)cc1 [Example 23, 4-{4-[2-(phenoxymethyl)-1H-imidazol-4-yl]phenoxy}benzonitrile]"
4,133 to 135,"CCOC(=O)c1ccc(-c2c[nH]c(COc3ccccc3)n2)cc1 [Example 24, ethyl 4-[2-(phenoxymethyl)-1H-imidazol-4-yl]benzoate]"
5,100 to 102,"CCOC(=O)c1ccc(Oc2ccc(-c3c[nH]c(COc4ccccc4)n3)cc2)cc1 [Example 25, ethyl 4-{4-[2-(phenoxymethyl)-1H-imidazol-4-yl]phenoxy}benzoate]"
6,122 to 124,"CSc1ccc(Oc2ccc(-c3c[nH]c(COc4ccccc4)n3)cc2)cc1 [Example 26, 4-{4-[4-(methylthio)phenoxy]phenyl}-2-(phenoxymethyl)-1H-imidazole]"
7,143 to 145,"CS(=O)(=O)c1ccc(Oc2ccc(-c3c[nH]c(COc4ccccc4)n3)cc2)cc1 [Example 27, 4-{4-[4-(methylsulphonyl)phenoxy]phenyl}-2-(phenoxymethyl)-1H-imidazole]"
8,140 to 142,"O=[N+]([O-])c1cccc(Oc2ccc(-c3c[nH]c(COc4ccccc4)n3)cc2)c1 [Example 31, 4-[4-(3-nitrophenoxy)phenyl]-2-(phenoxymethyl)-1H-imidazole]"
9,134 to 136,"c1ccc(COc2ccc(Oc3ccc(-c4c[nH]c(COc5ccccc5)n4)cc3)cc2)cc1 [Example 33, 4-{4-[4-(benzyloxy)phenoxy]phenyl}-2-(phenoxymethyl)-1H-imidazole]"
10,211 to 213,"Oc1ccc(Oc2ccc(-c3c[nH]c(COc4ccccc4)n3)cc2)cc1 [Example 34, 4-{4-[2-(phenoxymethyl)-1H-imidazol-4-yl]phenoxy}phenol]"
11,177 to 179,"Fc1cccc(Oc2ccc(-c3c[nH]c(COc4ccccc4)n3)cc2)c1 [Example 35, 4-[4-(3-fluorophenoxy)phenyl]-2-(phenoxymethyl)-1H-imidazole]"
12,161 to 163,"N#Cc1cccc(Oc2ccc(-c3c[nH]c(COc4ccccc4)n3)cc2)c1 [Example 39, 3-{4-[2-(phenoxymethyl)-1H-imidazol-4-yl]phenoxy}benzonitrile]"
13,128 to 129,"O=[N+]([O-])c1ccccc1Oc1ccc(-c2c[nH]c(COc3ccccc3)n2)cc1 [Example 40, 4-[4-(2-nitrophenoxy)phenyl]-2-(phenoxymethyl)-1H-imidazole]"
14,133 to 135,"Brc1cccc(Oc2ccc(-c3c[nH]c(COc4ccccc4)n3)cc2)c1 [Example 44, 4-[4-(3-bromophenoxy)phenyl]-2-(phenoxymethyl)-1H-imidazole]"
15,146 to 148,"Clc1cccc(Oc2ccc(-c3c[nH]c(COc4ccccc4)n3)cc2)c1 [Example 46, 4-[4-(3-chlorophenoxy)phenyl]-2-(phenoxymethyl)-1H-imidazole]"
16,160 to 161,"Fc1cc(F)cc(Oc2ccc(-c3c[nH]c(COc4ccccc4)n3)cc2)c1 [Example 47, 4-[4-(3,5-difluorophenoxy)phenyl]-2-(phenoxymethyl)-1H-imidazole]"
17,147 to 148,"c1ccc(Cc2ccc(-c3c[nH]c(COc4ccccc4)n3)cc2)cc1 [Example 48, 4-(4-benzylphenyl)-2-(phenoxymethyl)-1H-imidazole]"
18,160 to 162,"Cc1cccc(Oc2ccc(-c3c[nH]c(COc4ccccc4)n3)cc2)c1 [Example 49, 4-[4-(3-methylphenoxy)phenyl]-2-(phenoxymethyl)-1H-imidazole]"
19,154 to 156,"Fc1ccccc1Oc1ccc(-c2c[nH]c(COc3ccccc3)n2)cc1 [Example 51, 4-[4-(2-fluorophenoxy)phenyl]-2-(phenoxymethyl)-1H-imidazole]"
20,188 to 190,"Fc1ccc(Oc2ccc(-c3c[nH]c(COc4ccccc4)n3)cc2)cc1F [Example 52, 4-[4-(3,4-difluorophenoxy)phenyl]-2-(phenoxymethyl)-1H-imidazole]"
21,128 to 130,"Fc1ccc(F)c(Oc2ccc(-c3c[nH]c(COc4ccccc4)n3)cc2)c1 [Example 54, 4-[4-(2,5-difluorophenoxy)phenyl]-2-(phenoxymethyl)-1H-imidazole]"
22,131 to 133,"Fc1ccc(Oc2ccc(-c3c[nH]c(COc4ccccc4)n3)cc2)c(F)c1 [Example 55, 4-[4-(2,4-difluorophenoxy)phenyl]-2-(phenoxymethyl)-1H-imidazole]"
23,127 to 129,"Fc1cccc(Oc2ccc(-c3c[nH]c(COc4ccccc4)n3)cc2)c1F [Example 56, 4-[4-(2,3-difluorophenoxy)phenyl]-2-(phenoxymethyl)-1H-imidazole]"
24,143 to 145,"Fc1cccc(F)c1Oc1ccc(-c2c[nH]c(COc3ccccc3)n2)cc1 [Example 57, 4-[4-(2,6-difluorophenoxy)phenyl]-2-(phenoxymethyl)-1H-imidazole]"

row,SMILES,melting point [°C]
1,"CCCCOc1ccc(-c2c[nH]c(COc3ccccc3)n2)cc1 [Example 14, 4-(4-butoxyphenyl)-2-(phenoxymethyl)-1H-imidazole]",179 to 181
2,"FC(F)(F)CCCOc1ccc(-c2c[nH]c(COc3ccccc3)n2)cc1 [Example 20, 2-(phenoxymethyl)-4-[4-(4,4,4-trifluorobutoxy)phenyl]-1H-imidazole]",194 to 196
